Experimental findings from US9409952B2, “Peptide-compound cyclization method” (Chugai Seiyaku Kabushiki Kaisha, priority 2011, dated 2016) are described below.

The nature of series [1]: PAMPA (parallel artificial membrane permeability assay). Format: in vitro ADME. To be noted: PAMPA. In outline:
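Artificial membrane was 10% (w/v) egg lecithin plus 0.5% (w/v) cholesterol in dodecane on a PVDF filter. A 10 mM DMSO stock was added at 0.5% (v/v) to donor buffer (50 mM MOPSO, pH 6.5, 5.0% glycocholic acid). After 18 h at 37 °C, LC/MS or LC/UV gave donor and acceptor levels for Pe.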

Series [2] in a line: Metabolic stability in human hepatic microsome. To be noted: microsomes. The class given is in vitro ADME.
The mark [3] stands for this setting: membrane permeation rate (Pe), 50 mM MOPSO buffer pH 6.5 with 5.0% glycocholic acid, 37° C., 18 hours, read-out: iPAMPA Pe.
Setting [4] is: pH 7.4, human hepatic microsome, NADPH(+), read-out: CL NADPH(+).

Read-outs that look alike come from different tables or passages of the source. Starred links: 1 amine or outer side, 2 acyl side, 3 side chain; linkers in the order of their positions; H or OH if unused. Positions of bridges follow the written chain, without caps; N, C: chain ends. Non-standard residues stand in square brackets, D forms with d. Residues, ends and D or L forms follow the SMILES beside them. *: point of attachment. NMeF = CN[C@@H](Cc1ccccc1)C(=O)O; NMeGABA = CN(CCCC(=O)[*:2])[*:1]; NMeI = CC[C@H](C)[C@H](NC)C(=O)O; NMeβAla = CN(CCC(=O)[*:2])[*:1]; NMeL = CN[C@@H](CC(C)C)C(=O)O; NMeV = CN[C@H](C(=O)O)C(C)C; NMeA = CN[C@@H](C)C(=O)O; Piperidide = C1CCN(*)CC1; dNMeA = CN[C@H](C)C(=O)O; Sar = CNCC(=O)O; tBu = CC(C)(C)*

`CC(C)C[C@H]1C(=O)N(C)[C@@H](Cc2ccccc2)C(=O)NCC(=O)N[C@H](C(=O)N2CCCCC2)CC(=O)N(C)CCCC(=O)N[C@@H]([C@@H](C)O)C(=O)N(C)[C@@H](C)C(=O)N(C)[C@@H](Cc2ccccc2)C(=O)N[C@@H](COC(C)(C)C)C(=O)N1C` [DP-129] ([NMeGABA]T[NMeA][NMeF]S(tBu)[NMeL][NMeF]GD-Piperidide; lactam N-9): the Papp at 18 hours, 50 µM in series [1] (setting [3]) came to 17 ×10⁻⁶ cm/s. Moreover, the microsomal CLint at 1 uM in series [2] (setting [4]) stood at 120 µL/min/mg.
Consider `CC(C)C[C@H]1C(=O)N[C@@H]([C@@H](C)O)C(=O)N(C)[C@@H](C)C(=O)N(C)[C@@H](CC(C)C)C(=O)N(C)[C@@H](Cc2ccccc2)C(=O)N[C@@H](COC(C)(C)C)C(=O)N[C@H](C(=O)N2CCCCC2)CC(=O)N(C)CCCC(=O)N(C)[C@@H](C)C(=O)N1C` [DP-130] ([NMeGABA][NMeA][NMeL]T[NMeA][NMeL][NMeF]S(tBu)D-Piperidide; lactam N-9), for which the Papp at 18 hours, 50 µM in series [1] (setting [3]) worked out at 21 ×10⁻⁶ cm/s. The microsomal CLint at 1 uM in series [2] (setting [4]) came out at 76 µL/min/mg.
As to `CC[C@H](C)[C@@H]1NC(=O)[C@H](CC(C)C)N(C)C(=O)[C@H](Cc2ccccc2)N(C)C(=O)[C@H](CC(C)C)NC(=O)[C@@H](C)NC(=O)C[C@@H](C(=O)N2CCCCC2)NC(=O)[C@H](C)N(C)C(=O)[C@H](C)N(C)C(=O)CN(C)C(=O)[C@H]([C@@H](C)O)NC(=O)[C@H](Cc2ccccc2)N(C)C(=O)[C@H](C(C)C)N(C)C1=O` [DP-131] ([dA]L[NMeF][NMeL]I[NMeV][NMeF]T[Sar][NMeA][NMeA]D-Piperidide; lactam N-12), the Papp at 18 hours, 50 µM in series [1] (setting [3]) was 61 ×10⁻⁶ cm/s. Besides, the microsomal CLint at 1 uM in series [2] (setting [4]) was 48 µL/min/mg.
Consider `CC[C@H](C)[C@@H]1NC(=O)[C@@H](C(C)C)NC(=O)C[C@@H](C(=O)N2CCCCC2)NC(=O)[C@H](C)N(C)C(=O)[C@H](CC(C)C)N(C)C(=O)CN(C)C(=O)[C@H]([C@@H](C)O)NC(=O)[C@H](Cc2ccccc2)N(C)C(=O)[C@H](CC(C)C)N(C)C(=O)[C@H](C)NC(=O)[C@H](C(C)C)N(C)C(=O)[C@H](Cc2ccccc2)N(C)C1=O` [DP-132] ([dV]I[NMeF][NMeV]A[NMeL][NMeF]T[Sar][NMeL][NMeA]D-Piperidide; lactam N-12), for which, in series [1] (setting [3]), the Papp at 18 hours, 50 µM turned out to be 39 ×10⁻⁶ cm/s. Also, the microsomal CLint at 1 uM in series [2] (setting [4]) came to 37 µL/min/mg.
On to `CC(C)C[C@@H]1NC(=O)[C@H](C)N(C)C(=O)C[C@@H](C(=O)N2CCCCC2)NC(=O)[C@H](Cc2ccccc2)N(C)C(=O)[C@H](CC(C)C)N(C)C(=O)CN(C)C(=O)[C@H]([C@@H](C)O)NC(=O)[C@H](C)N(C)C(=O)[C@H](C(C)C)N(C)C(=O)[C@H](C)NC(=O)[C@H](CC(C)C)N(C)C(=O)[C@H](Cc2ccccc2)N(C)C1=O` [DP-133] ([NMeA]L[NMeF][NMeL]A[NMeV][NMeA]T[Sar][NMeL][NMeF]D-Piperidide; lactam N-12), for which, in series [1] (setting [3]), the Papp at 18 hours, 50 µM is 30 ×10⁻⁶ cm/s. The microsomal CLint at 1 uM in series [2] (setting [4]) was found to be 51 µL/min/mg.
In the same order, the values of `CC[C@H](C)[C@@H]1NC(=O)[C@H](Cc2ccccc2)NC(=O)[C@H](Cc2ccccc2)N(C)C(=O)CCN(C)C(=O)C[C@@H](C(=O)N2CCCCC2)NC(=O)[C@H](C)NC(=O)[C@H](CC(C)C)N(C)C(=O)[C@H](CC(C)C)N(C)C(=O)CN(C)C(=O)[C@H]([C@@H](C)O)NC(=O)[C@H](C(C)C)N(C)C(=O)[C@@H]2CCCN2C1=O` [DP-134] ([NMeβAla][NMeF]FIP[NMeV]T[Sar][NMeL][NMeL]AD-Piperidide; lactam N-12) are 13 ×10⁻⁶ cm/s and 18 µL/min/mg.
Taken in the same sequence, the figures for `CC[C@H](C)[C@H]1C(=O)N[C@H](C(=O)N2CCCCC2)CC(=O)N[C@H](C)C(=O)N[C@@H](Cc2ccccc2)C(=O)N(C)[C@@H](C)C(=O)N(C)[C@@H](C(C)C)C(=O)N[C@@H]([C@@H](C)O)C(=O)N(C)CC(=O)N(C)[C@@H](CC(C)C)C(=O)N[C@@H](C)C(=O)N1C` [DP-135] ([dA]F[NMeA][NMeV]T[Sar][NMeL]A[NMeI]D-Piperidide; lactam N-10) were 5.2 ×10⁻⁶ cm/s and 15 µL/min/mg.
Take `CC[C@H](C)[C@@H]1NC(=O)[C@H](CC(C)C)N(C)C(=O)[C@H](C)N(C)C(=O)[C@@H](C)NC(=O)C[C@@H](C(=O)N2CCCCC2)NC(=O)[C@H](CC(C)C)N(C)C(=O)[C@H](C)N(C)C(=O)[C@H]([C@@H](C)O)NC(=O)[C@H](Cc2ccccc2)N(C)C(=O)[C@H](Cc2ccccc2)N(C)C1=O` [DP-136] ([dA][NMeA][NMeL]I[NMeF][NMeF]T[NMeA][NMeL]D-Piperidide; lactam N-10): the Papp at 18 hours, 50 µM in series [1] (setting [3]) came to 35 ×10⁻⁶ cm/s. Besides, the microsomal CLint at 1 uM in series [2] (setting [4]) is 147 µL/min/mg.
Turning to `CC[C@H](C)[C@@H]1NC(=O)[C@H](Cc2ccccc2)NC(=O)[C@H](C(C)C)N(C)C(=O)CN(C)C(=O)C[C@@H](C(=O)N2CCCCC2)NC(=O)[C@H]([C@@H](C)O)NC(=O)[C@H](CC(C)C)N(C)C(=O)[C@H](Cc2ccccc2)NC(=O)[C@H](CC(C)C)N(C)C(=O)CNC(=O)[C@H](CC(C)C)NC(=O)[C@H](C)N(C)C1=O` [DP-137] ([Sar][NMeV]FI[NMeA]LG[NMeL]F[NMeL]TD-Piperidide; lactam N-12), the Papp at 18 hours, 50 µM in series [1] (setting [3]) stood at 32 ×10⁻⁶ cm/s. Moreover, the microsomal CLint at 1 uM in series [2] (setting [4]) worked out at 86 µL/min/mg.
Regarding `CC[C@H](C)[C@H]1C(=O)N[C@@H](COC(C)(C)C)C(=O)N[C@H](C(=O)N2CCCCC2)CC(=O)N(C)[C@@H](C)C(=O)N(C)[C@@H](Cc2ccccc2)C(=O)N(C)CC(=O)N(C)[C@@H](CC(C)C)C(=O)N[C@@H]([C@@H](C)O)C(=O)N(C)[C@@H](C)C(=O)N(C)[C@@H](CC(C)C)C(=O)N1C` [DP-138] ([NMeA][NMeF][Sar][NMeL]T[NMeA][NMeL][NMeI]S(tBu)D-Piperidide; lactam N-10), the Papp at 18 hours, 50 µM in series [1] (setting [3]) amounted to 31 ×10⁻⁶ cm/s. Further, in series [2] (setting [4]), the microsomal CLint at 1 uM was found to be 48 µL/min/mg.
In the same order, the values of `CC(C)C[C@@H]1NC(=O)[C@@H](C)NC(=O)C[C@@H](C(=O)N2CCCCC2)NC(=O)[C@H](CC(C)C)N(C)C(=O)[C@H](C)N(C)C(=O)[C@H](CC(C)C)N(C)C(=O)[C@H](CC(C)C)N(C)C(=O)[C@H](Cc2ccccc2)N(C)C(=O)[C@H](C)NC(=O)[C@H](Cc2ccccc2)N(C)C(=O)[C@H]([C@@H](C)O)NC1=O` [DP-139] ([dA]LT[NMeF]A[NMeF][NMeL][NMeL][NMeA][NMeL]D-Piperidide; lactam N-11) are 23 ×10⁻⁶ cm/s and 22 µL/min/mg.
For the compound `CC[C@H](C)[C@@H]1NC(=O)[C@H](C)N(C)C(=O)CCN(C)C(=O)C[C@@H](C(=O)N2CCCCC2)NC(=O)[C@H](CC(C)C)N(C)C(=O)[C@H](CC(C)C)N(C)C(=O)[C@H](C)N(C)C(=O)[C@H]([C@@H](C)O)NC(=O)[C@H](Cc2ccccc2)N(C)C(=O)[C@H](Cc2ccccc2)N(C)C1=O` [DP-140] ([NMeβAla][NMeA]I[NMeF][NMeF]T[NMeA][NMeL][NMeL]D-Piperidide; lactam N-10), in series [1] (setting [3]), the Papp at 18 hours, 50 µM amounted to 61 ×10⁻⁶ cm/s. In addition, in series [2] (setting [4]), the microsomal CLint at 1 uM was determined as 96 µL/min/mg.
The compound `CC[C@H](C)[C@H]1C(=O)N[C@H](C(=O)N2CCCCC2)CC(=O)N(C)[C@H](C)C(=O)N[C@@H](Cc2ccccc2)C(=O)N(C)[C@@H](C)C(=O)N(C)[C@@H](CC(C)C)C(=O)N[C@@H]([C@@H](C)O)C(=O)N(C)CC(=O)N(C)[C@@H](C(C)C)C(=O)N[C@@H](C)C(=O)N1C` [DP-142] ([dNMeA]F[NMeA][NMeL]T[Sar][NMeV]A[NMeI]D-Piperidide; lactam N-10) registered a Papp at 18 hours, 50 µM in series [1] (pH 6.5) of 4 ×10⁻⁶ cm/s. For the same compound, in series [2] (human, pH 7.4, CL NADPH(+)), the microsomal CLint at 1 uM was found to be 22 µL/min/mg.
In series [1] (pH 6.5), `CC(C)C[C@@H]1NC(=O)[C@H](C(C)C)N(C)C(=O)[C@H](Cc2ccccc2)NC(=O)CN(C)C(=O)[C@H]([C@@H](C)O)NC(=O)[C@H](C)N(C)C(=O)[C@H](CC(C)C)N(C)C(=O)[C@@H](C(C)C)NC(=O)C[C@@H](C(=O)N2CCCCC2)NC(=O)[C@H](C)NC(=O)[C@H](CC(C)C)N(C)C1=O` [DP-143] ([dV][NMeL][NMeA]T[Sar]F[NMeV]L[NMeL]AD-Piperidide; lactam N-11) returned a Papp at 18 hours, 50 µM of 20 ×10⁻⁶ cm/s. In series [2] (human, pH 7.4, CL NADPH(+)), the microsomal CLint at 1 uM was 25 µL/min/mg.
In series [1] (pH 6.5), `CC[C@H](C)[C@H]1C(=O)N[C@H](C(=O)N2CCCCC2)CC(=O)N(C)[C@H](C)C(=O)N(C)[C@@H](C)C(=O)N(C)CC(=O)N(C)[C@@H](CC(C)C)C(=O)N[C@@H]([C@@H](C)O)C(=O)N(C)[C@@H](Cc2ccccc2)C(=O)N(C)[C@@H](CC(C)C)C(=O)N[C@@H](COC(C)(C)C)C(=O)N1C` [DP-144] ([dNMeA][NMeA][Sar][NMeL]T[NMeF][NMeL]S(tBu)[NMeI]D-Piperidide; lactam N-10) returned a Papp at 18 hours, 50 µM of 65 ×10⁻⁶ cm/s. In series [2] (human, pH 7.4, CL NADPH(+)), this compound showed a microsomal CLint at 1 uM of 125 µL/min/mg.
Consider `CC[C@H](C)[C@H]1C(=O)N[C@@H](CC(C)C)C(=O)N(C)[C@@H](Cc2ccccc2)C(=O)N(C)[C@@H](CC(C)C)C(=O)N[C@@H]([C@@H](C)O)C(=O)N[C@@H](Cc2ccccc2)C(=O)N(C)[C@@H](C(C)C)C(=O)N[C@H](C(=O)N2CCCCC2)CC(=O)N(C)CC(=O)N[C@@H](C)C(=O)N1C` [DP-145] ([Sar]A[NMeI]L[NMeF][NMeL]TF[NMeV]D-Piperidide; lactam N-10), for which, in series [1] (setting [3]), the Papp at 18 hours, 50 µM amounted to 29 ×10⁻⁶ cm/s. Also, the microsomal CLint at 1 uM in series [2] (setting [4]) came to 232 µL/min/mg.
On to `CC(C)C[C@@H]1NC(=O)[C@@H]2CCCN2C(=O)[C@H](Cc2ccccc2)N(C)C(=O)[C@H](C)N(C)C(=O)[C@H]([C@@H](C)O)NC(=O)[C@@H](C(C)C)NC(=O)C[C@@H](C(=O)N2CCCCC2)NC(=O)[C@H](CC(C)C)N(C)C(=O)[C@H](C)N(C)C(=O)[C@H](Cc2ccccc2)NC(=O)[C@H](C(C)C)N(C)C1=O` [DP-146] ([dV]T[NMeA][NMeF]PL[NMeV]F[NMeA][NMeL]D-Piperidide; lactam N-11), for which the Papp at 18 hours, 50 µM in series [1] (pH 6.5) stood at 26 ×10⁻⁶ cm/s. This compound also displayed a microsomal CLint at 1 uM in series [2] (human, pH 7.4, CL NADPH(+)) of 52 µL/min/mg.
